From PMC3943701 (Biochimica et biophysica acta, 2013)
Entries after “also recorded” stand apart in the source; their conditions may differ. Read-outs that look alike come from different tables or passages of the source.

Tests used:
influenza A/M2 protein = conditions: sensitive circulating influenza strains; ref [2], [3]; cited from earlier work
M2 His37 = conditions: addition of amantadine; ref [17]; cited from earlier work
[1] = test system: M2(19–62) thiazolylalanine construct; format: biochemical, influenza A virus (A/Udorn/72); conditions: pH 2.4
[2] = test system: M2(19–62) wild type construct; format: biochemical, influenza A virus (A/Udorn/72); conditions: liposomes pre-mixed with amantadine HCl 3 h, 18°C
[3] = in solution, no reference given, cited from earlier work

Row | SMILES | inhibition of M2 proton transport (in words) (influenza A/M2 protein) | effect on His37 ring flip, protonation and deprotonation (in words) (M2 His37) | amantadine inhibition of currents (in words) [1] | inhibitory effect of amantadine on flux (in words) ([2]; bathing buffer pH 2.4) | amantadine sensitivity of flux (in words) ([2]; bathing buffer pH 7.4 and 4.9) | solution pKa of side chain [3] | solution pKa of side chain ([3]; listed as imidazole)
1 | CC(N)C12CC3CC(CC(C3)C1)C2 (centres unmarked) [rimantadine] | inhibited | – | – | – | – | – | –
2 | NC12CC3CC(CC(C3)C1)C2 [amantadine] | inhibited | significantly inhibited | robust amantadine inhibition | No inhibitory effect; also recorded: begins to be lost | amantadine-sensitive | – | –
3 | N[C@@H](Cc1c[nH]cn1)C(=O)O [histidine] | – | – | – | – | – | 6.5 | ~ 6.5
